Source: ChEMBL document CHEMBL1833944, “Conformationally constrained farnesoid X receptor (FXR) agonists: alternative replacements of the stilbene” (Bioorg Med Chem Lett, 2011)

What was measured:
[1] = target: T1, Bile acid receptor (Homo sapiens) (UniProt Q96RI1); assay: Agonist activity at human FXR LBD transfected in african green monkey CV1 cells assessed as maximum efficacy after overnight incubation by luciferase reporter gene assay relative to GW4064; format: functional, cell-based; conditions: CV-1
T1 sequence (whole entry): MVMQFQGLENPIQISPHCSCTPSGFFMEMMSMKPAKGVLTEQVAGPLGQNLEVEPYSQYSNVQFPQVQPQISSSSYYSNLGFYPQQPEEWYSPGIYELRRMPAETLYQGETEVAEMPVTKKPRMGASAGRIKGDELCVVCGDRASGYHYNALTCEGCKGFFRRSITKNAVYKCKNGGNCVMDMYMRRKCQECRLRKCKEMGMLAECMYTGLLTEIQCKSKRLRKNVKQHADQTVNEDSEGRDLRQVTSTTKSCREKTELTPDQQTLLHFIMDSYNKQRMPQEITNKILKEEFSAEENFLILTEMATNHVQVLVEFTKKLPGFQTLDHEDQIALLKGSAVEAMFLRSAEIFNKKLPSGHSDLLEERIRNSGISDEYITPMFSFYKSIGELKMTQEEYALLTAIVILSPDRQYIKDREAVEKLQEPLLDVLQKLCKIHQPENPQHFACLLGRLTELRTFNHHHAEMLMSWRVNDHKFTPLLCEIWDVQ

Bile acid receptor [2] = target: T2, Bile acid receptor (Homo sapiens, UniProt Q96RI1); assay: Agonist activity at human amino-terminal polyhistidine-tagged FXR alpha LBD (amino acids 237 to 472) assessed as cofactor peptide SRC-1 interaction with receptor ligand binding domain after 2 hrs by FRET assay
T2 sequence (Q96RI1 whole entry): T1 sequence (whole entry)

Bile acid receptor [3] = target: T2, Bile acid receptor; assay: Agonist activity at human FXR LBD transfected in african green monkey CV1 cells after overnight incubation by luciferase reporter gene assay; format: functional, cell-based, CV-1
[4] = target: T1, Bile acid receptor (Homo sapiens); assay: Agonist activity at human amino-terminal polyhistidine-tagged FXR alpha LBD (amino acids 237 to 472) assessed as maximum efficacy measuring cofactor peptide SRC-1 interaction with receptor ligand binding domain after 2 hrs by FRET assay relative to GW4064
[5] = Clearance in rat at 1 mg/kg, iv; format: ADME, organism-based; design: dose 1 mg/kg, route intravenous; conditions: in vivo
[6] = Volume of distribution at steady state in rat at 1 mg/kg, iv; format: ADME, organism-based; design: dose 1 mg/kg, route intravenous; conditions: in vivo, read-out: Vdss
[7] = Oral bioavailability in rat at 5 mg/kg; format: ADME, organism-based; conditions: in vivo
Rattus norvegicus = assay: Dose normalized AUC in rat at 5 mg/kg, po; format: ADME, organism-based; design: dose 5 mg/kg, route oral; conditions: in vivo
[8] = Terminal half life in rat at 1 mg/kg, iv; format: ADME, organism-based; design: dose 1 mg/kg, route intravenous; conditions: in vivo, read-out: beta t1/2
[9] = Selectivity for human FXR over PPAR gamma receptor
[10] = Selectivity for human FXR over LXR alpha receptor
[11] = Selectivity for human FXR over PXR receptor
[12] = Inhibition of Cytochrome P450; format: ADME
[13] = Selectivity for human FXR over PPAR alpha receptor
[14] = Selectivity for human FXR over PPAR delta receptor
[15] = Selectivity for human FXR over LXR beta receptor

Row | Emax [1] | EC50 (Bile acid receptor [2]) | EC50 (Bile acid receptor [3]) | Emax [4] | clearance [5] | Vd [6] | bioavailability [7] | AUC/dose (Rattus norvegicus) | half-life [8] | fold change (FC) [9] | fold change (FC) [10] | fold change (FC) [11] | IC50 [12] | fold change (FC) [13] | fold change (FC) [14] | fold change (FC) [15] | SMILES
1 | 91% | 0.25 µM | 0.53 µM | 77% |  |  |  |  |  |  |  |  |  |  |  |  | CC(C)c1onc(-c2c(Cl)cccc2Cl)c1COc1ccc(-c2ccc3sc(C(=O)O)cc3c2)cc1
2 | 36% | 1.2 µM | 1.3 µM | 61% |  |  |  |  |  |  |  |  |  |  |  |  | CC(C)c1onc(-c2c(Cl)cccc2Cl)c1COc1ccc(-c2nc3cccc(C(=O)O)c3[nH]2)cc1
3 | 90% | 0.051 µM | 0.13 µM | 93% | 78 mL/min/kg | 1.7 L/kg | 20% | 43 ng·kg·h/mL/mg | 1.02 h |  |  |  |  |  |  |  | CC(C)c1onc(-c2c(Cl)cccc2Cl)c1COc1ccc(-c2ccc3oc(C(=O)O)cc3c2)cc1
4 | 59% | 0.75 µM | 0.49 µM | 75% |  |  |  |  |  |  |  |  |  |  |  |  | CC(C)c1onc(-c2c(Cl)cccc2Cl)c1COc1ccc(-c2ccc3c(c2)CC(C(=O)O)C3)cc1 (stereo not given)
5 | 102% |  |  | 105% | 32 mL/min/kg | 3.4 L/kg |  | 130 ng·kg·h/mL/mg | 2.83 h |  |  |  |  |  |  |  | CC(C)c1onc(-c2c(Cl)cccc2Cl)c1COc1ccc(-c2ccc3nc(C(=O)O)ccc3c2)cc1
6 | 78% | 0.088 µM | 0.11 µM | 81% | 55 mL/min/kg | 1.3 L/kg | 7.1% | 22 ng·kg·h/mL/mg | 1.48 h |  |  |  |  |  |  |  | CC(C)c1onc(-c2c(Cl)cccc2Cl)c1COc1ccc(-c2ccc3[nH]c(C(=O)O)cc3c2)cc1

The remaining lines, values behind:

Row | SMILES | Emax [1] | EC50 (Bile acid receptor [2]) | EC50 (Bile acid receptor [3]) | Emax [4] | clearance [5] | Vd [6] | bioavailability [7] | AUC/dose (Rattus norvegicus) | half-life [8] | fold change (FC) [9] | fold change (FC) [10] | fold change (FC) [11] | IC50 [12] | fold change (FC) [13] | fold change (FC) [14] | fold change (FC) [15]
7 | CC(C)c1onc(-c2c(Cl)cccc2Cl)c1COc1ccc(-c2ccc3cc(C(=O)O)[nH]c3c2)cc1 | 69% | 0.21 µM | 0.14 µM | 96% | 30 mL/min/kg | 0.5 L/kg | 3% | 16 ng·kg·h/mL/mg | 1.17 h |  |  |  |  |  |  | 
8 | CC(C)c1onc(-c2c(Cl)cccc2Cl)c1COc1ccc(-c2ccc3sc(C(=O)O)cc3n2)cc1 | 82% | 0.67 µM | 1.7 µM | 53% |  |  |  |  |  |  |  |  |  |  |  | 
9 | CC(C)c1onc(-c2c(Cl)cccc2Cl)c1COc1ccc(-c2ccc3c(c2)CCCC3C(=O)O)cc1 (stereo not given) | 68% | 0.55 µM | 0.75 µM | 72% |  |  |  |  |  |  |  |  |  |  |  | 
10 | CC(C)c1onc(-c2c(Cl)cccc2Cl)c1COc1ccc(-c2ccc3c(C(=O)O)c[nH]c3c2)cc1 | 35% | 0.02 µM | 0.031 µM | 107% | 76 mL/min/kg | 1.2 L/kg | 5.1% | 11 ng·kg·h/mL/mg | 0.433 h | > 100 | > 100 | > 100 | > 5 µM | > 100 | > 100 | > 100
11 | CC(C)c1onc(-c2c(Cl)cccc2Cl)c1COc1ccc(Sc2cccc3sc(C(=O)O)cc23)cc1 | 59% | 0.19 µM | 0.99 µM | 72% |  |  |  |  |  |  |  |  |  |  |  | 
12 | CC(C)c1onc(-c2c(Cl)cccc2Cl)c1COc1ccc(-c2ccc3c(C(=O)O)cccc3c2)cc1 | 104% |  |  | 134% |  |  |  |  |  |  |  |  |  |  |  | 
13 | CC(C)c1onc(-c2c(Cl)cccc2Cl)c1COc1ccc(Cn2ccc3ccc(C(=O)O)cc32)cc1 | 42% | 1 µM | 0.5 µM | 38% |  |  |  |  |  |  |  |  |  |  |  | 
14 | CC(C)c1onc(-c2c(Cl)cccc2Cl)c1COc1ccc(-c2ccc3c(C(=O)O)csc3c2)cc1 | 81% | 0.021 µM | 0.024 µM | 115% | 50 mL/min/kg | 0.73 L/kg | 0% | 0 ng·kg·h/mL/mg | 0.367 h |  |  |  |  |  |  | 
15 | CC(C)c1onc(-c2c(Cl)cccc2Cl)c1COc1ccc(/C=C/c2cccc(C(=O)O)c2)c(Cl)c1 | 100% |  |  | 100% |  |  |  |  |  |  |  |  |  |  |  | 
